{
  "source": "patent US7820196B2",
  "about": "“Physiologically active agents containing vicinal dithioglycols and use thereof in various branches of economy” (priority 1999, dated 2010)",
  "key": {"broiler chickens": {"test_system": "broiler chickens", "experiment": "Example 6: effect of unithiol on accumulation of heavy metal compounds in tissues of poultry", "assay_type": "in vivo", "procedure": "An experiment was conducted, on the inventors' initiative, on the experimental base of the All-Russia research and technological institute for aviculture (VNITIP) during which a study was given to the following tasks: • determination of an effect produced by unithiol (DMPS) on the productivity and meat quality of broiler chickens; • effect produced by unithiol on the accumulation of heavy metal compounds (mercury, cadmium, lead) in various tissues of poultry.\nThe experiment was carried out in a vivarium on broiler chickens of one cross. Poultry was grown in cell batteries from one day to six-week age. The operating parameters and feeding level met the recommendation VNITIP 1999. The experiment was conducted according to the diagram on Table 1.\nThe poultry population: 1 and 2 groups, 35 heads each; 3,4,5 groups—6 heads each.\n13. Contained heavy metal residual compounds (mercury, cadmium, lead) in mixed feed for the broilers.\n14. Evaluation of the level of meat contamination and internal organs (liver and kidneys) of the broilers with heavy metal salts."}, "[1]": {"test_system": "participants (males and females) taking 1 l dark beer every evening", "experiment": "Example 7: hangover and biochemical indices in participants taking dark beer with Unithiol or placebo", "assay_type": "in vivo, human", "conditions": "for MDA (urine) / ALT (blood) / AST (blood) / SH-gr. (blood) / Triglycerides (blood) / Urate (blood) / Vit. A (blood) / Vit. E (blood): one value per participant", "excerpt": "The tests were held upon the offer's proposal. The Moscow scientific and practical Center for the drug prophylactic of the Moscow health Administration was taken as the base for it.\nThe experiment was schemed as follows. The participants were taken from males and females of different age groups and different alcohol intake habits.\nThe control group remained as an intact one.\nThe experimental group—1—took in 1 l. of a dark beer of the “Klinskoie” type every evening from the X^th day till the X+13th day. That group took in the placebo every morning from the X+1th day till X+7th day, and every morning it took in from the X+8th day till X+14th day the solution of 250 mg of Unithiol in 100 g of drinking water.\nThe experimental group—2—took in 1 l. of a dark beer of the “Klinskoie” type every evening from the X^th day till the X+13th day. That group took in the solution of 250 mg of Unithiol in 100 g of drinking water every morning from the X+1th day till X+7th day, and every morning it took in the placebo from the X+8th day till X+14th day.\nThe measurements of the biochemical indices were taken in the mornings in every group, and in the control groups—after 30 minutes of placebo or Unithiol intake.\nThe following indices of the level of the per oxidation of lipids and the condition of the liver and the brain tissues were measured: • MDA—malondialdehyde • Triglycerides • Endogenous antioxidants: • Vit. A—vitamin A • Vit. E—vitamin E • Urate—serum urate • SH-gr.—SH-groups • Aminotransferase: • ALT—lanine aminotransferase • AST—aspartate aminotransferase"}, "[2]": {"conditions": "Group 2: BR + 17 mg unithiol/kg feed days 15-42"}, "[3]": {"conditions": "Group 4: BR + heavy metals + 17 mg unithiol/kg feed, both days 15-42"}, "[4]": {"conditions": "Group 5: BR + heavy metals days 15-35, 34 mg unithiol/kg feed days 36-42"}, "[5]": {"conditions": "day X+7, Experimental group 2: beer every evening, 250 mg Unithiol mornings X+1 to X+7"}, "[6]": {"conditions": "day X+14, Experimental group 1: beer every evening, 250 mg Unithiol mornings X+8 to X+14"}},
  "note": "Values joined by “and” are separate entries in the source; they are usually repeats but may differ in a detail not shown here. Equal entries are not always repeated.",
  "data": [
    {"smiles": "O=S(=O)([O-])CC(S)CS.[Na+]", "note": "(centres unmarked) [Unithiol, Sodium 2,3-Dimercaptopropane sulfonate]", "values": [
      {"measurement": "Heavy metal content: cadmium, kidneys", "setting": "broiler chickens; [2]", "value": 0.078, "unit": "mg/kg"},
      {"measurement": "Heavy metal content: cadmium, liver", "setting": "broiler chickens; [2]", "value": 0.049, "unit": "mg/kg"},
      {"measurement": "Heavy metal content: lead, kidneys", "setting": "broiler chickens; [2]", "value": 0.67, "unit": "mg/kg"},
      {"measurement": "Heavy metal content: lead, liver", "setting": "broiler chickens; [2]", "value": 0.40, "unit": "mg/kg"},
      {"measurement": "Heavy metal content: mercury, kidneys", "setting": "broiler chickens; [2]", "value": 0.055, "unit": "mg/kg"},
      {"measurement": "Heavy metal content: mercury, liver", "setting": "broiler chickens; [2]", "value": 0.039, "unit": "mg/kg"},
      {"measurement": "Heavy metal content: zinc, kidneys", "setting": "broiler chickens; [2]", "value": 95.3, "unit": "mg/kg"},
      {"measurement": "Heavy metal content: zinc, liver", "setting": "broiler chickens; [2]", "value": 104.1, "unit": "mg/kg"},
      {"measurement": "Heavy metal content: zinc, muscular tissue", "setting": "broiler chickens; [2]", "value": 50.2, "unit": "mg/kg"},
      {"measurement": "Heavy metal content: cadmium, kidneys", "setting": "broiler chickens; [3]", "value": 3.76, "unit": "mg/kg"},
      {"measurement": "Heavy metal content: cadmium, liver", "setting": "broiler chickens; [3]", "value": 2.98, "unit": "mg/kg"},
      {"measurement": "Heavy metal content: cadmium, muscular tissue", "setting": "broiler chickens; [3]", "value": 0.37, "unit": "mg/kg"},
      {"measurement": "Heavy metal content: lead, kidneys", "setting": "broiler chickens; [3]", "value": 8.50, "unit": "mg/kg"},
      {"measurement": "Heavy metal content: lead, liver", "setting": "broiler chickens; [3]", "value": 4.80, "unit": "mg/kg"},
      {"measurement": "Heavy metal content: lead, muscular tissue", "setting": "broiler chickens; [3]", "value": 0.83, "unit": "mg/kg"},
      {"measurement": "Heavy metal content: mercury, kidneys", "setting": "broiler chickens; [3]", "value": 2.00, "unit": "mg/kg"},
      {"measurement": "Heavy metal content: mercury, liver", "setting": "broiler chickens; [3]", "value": 2.18, "unit": "mg/kg"},
      {"measurement": "Heavy metal content: mercury, muscular tissue", "setting": "broiler chickens; [3]", "value": 0.375, "unit": "mg/kg"},
      {"measurement": "Heavy metal content: zinc, kidneys", "setting": "broiler chickens; [3]", "value": 103.1, "unit": "mg/kg"},
      {"measurement": "Heavy metal content: zinc, liver", "setting": "broiler chickens; [3]", "value": 107.2, "unit": "mg/kg"},
      {"measurement": "Heavy metal content: zinc, muscular tissue", "setting": "broiler chickens; [3]", "value": 50.4, "unit": "mg/kg"},
      {"measurement": "Heavy metal content: cadmium, kidneys", "setting": "broiler chickens; [4]", "value": 2.97, "unit": "mg/kg"},
      {"measurement": "Heavy metal content: cadmium, liver", "setting": "broiler chickens; [4]", "value": 2.30, "unit": "mg/kg"},
      {"measurement": "Heavy metal content: cadmium, muscular tissue", "setting": "broiler chickens; [4]", "value": 0.24, "unit": "mg/kg"},
      {"measurement": "Heavy metal content: lead, kidneys", "setting": "broiler chickens; [4]", "value": 7.00, "unit": "mg/kg"},
      {"measurement": "Heavy metal content: lead, liver", "setting": "broiler chickens; [4]", "value": 3.40, "unit": "mg/kg"},
      {"measurement": "Heavy metal content: lead, muscular tissue", "setting": "broiler chickens; [4]", "value": 0.54, "unit": "mg/kg"},
      {"measurement": "Heavy metal content: mercury, kidneys", "setting": "broiler chickens; [4]", "value": 1.05, "unit": "mg/kg"},
      {"measurement": "Heavy metal content: mercury, liver", "setting": "broiler chickens; [4]", "value": 1.12, "unit": "mg/kg"},
      {"measurement": "Heavy metal content: mercury, muscular tissue", "setting": "broiler chickens; [4]", "value": 0.328, "unit": "mg/kg"},
      {"measurement": "Heavy metal content: zinc, kidneys", "setting": "broiler chickens; [4]", "value": 98.2, "unit": "mg/kg"},
      {"measurement": "Heavy metal content: zinc, liver", "setting": "broiler chickens; [4]", "value": 104.3, "unit": "mg/kg"},
      {"measurement": "Heavy metal content: zinc, muscular tissue", "setting": "broiler chickens; [4]", "value": 50.3, "unit": "mg/kg"},
      {"measurement": "heavy metal salt content in the depositing organs and meat", "setting": "broiler chickens; use of unithiol", "value": "considerably reduce a heavy metal salt content"},
      {"measurement": "time to full hangover alleviating after intake", "setting": "[1]; 250 mg Unithiol in 100 g drinking water in the morning after 1 l dark beer in the evening", "value": "5 to 10", "unit": "min"},
      {"measurement": "toxic activity of ethanol and products of its incomplete oxidation (carbonyl compounds) to liver and brain tissue", "setting": "[1]; Unithiol intake during alcohol intake", "value": "reduce almost to the whole extent"},
      {"measurement": "MDA (urine)", "setting": "[1]; day X+2, Experimental group 2: 1 l dark beer every evening, 250 mg Unithiol mornings X+1 to X+7", "value": "0.62 nM/ml and 0.45 nM/ml (2×) and 0.47 nM/ml and 0.43 nM/ml and 0.99 nM/ml and 0.67 nM/ml"},
      {"measurement": "MDA (urine)", "setting": "[1]; day X+4, Experimental group 2: beer every evening, 250 mg Unithiol mornings X+1 to X+7", "value": "0.60 nM/ml and 0.58 nM/ml (2×) and 0.42 nM/ml and 0.51 nM/ml and 0.88 nM/ml and 0.53 nM/ml"},
      {"measurement": "ALT (blood)", "setting": "[1]; [5]", "value": "61 nmol (sec. 1) and 50 nmol (sec. 1) (2×) and 37 nmol (sec. 1) and 46 nmol (sec. 1) and 190 nmol (sec. 1) and 39 nmol (sec. 1)"},
      {"measurement": "AST (blood)", "setting": "[1]; [5]", "value": "48 nmol (sec. 1) and 46 nmol (sec. 1) and 31 nmol (sec. 1) and 41 nmol (sec. 1) and 37 nmol (sec. 1) and 172 nmol (sec. 1) and 30 nmol (sec. 1)"},
      {"measurement": "MDA (urine)", "setting": "[1]; [5]", "value": "0.55 nM/ml and 0.43 nM/ml and 0.49 nM/ml and 0.42 nM/ml and 0.38 nM/ml and 0.89 nM/ml and 0.56 nM/ml"},
      {"measurement": "SH-gr. (blood)", "setting": "[1]; [5]", "value": "378 MKM and 389 MKM (2×) and 383 MKM and 380 MKM and 197 MKM and 354 MKM"},
      {"measurement": "Triglycerides (blood)", "setting": "[1]; [5]", "value": "0.80 mmoi/l and 0.59 mmoi/l and 0.44 mmoi/l and 0.43 mmoi/l and 0.41 mmoi/l and 1.73 mmoi/l and 0.42 mmoi/l"},
      {"measurement": "Urate (blood)", "setting": "[1]; [5]", "value": "268 MKM and 267 MKM and 311 MKM and 295 MKM and 280 MKM and 208 MKM and 279 MKM"},
      {"measurement": "Vit. A (blood)", "setting": "[1]; [5]", "value": "1.9 µg/mL and 2.2 µg/mL and 2.8 µg/mL and 2.3 µg/mL and 2.7 µg/mL and 0.6 µg/mL and 1.6 µg/mL"},
      {"measurement": "Vit. E (blood)", "setting": "[1]; [5]", "value": "2.6 µg/mL and 3.3 µg/mL and 3.1 µg/mL and 3.8 µg/mL and 3.2 µg/mL and 1.0 µg/mL and 2.4 µg/mL"},
      {"measurement": "MDA (urine)", "setting": "[1]; day X+9, Experimental group 1: 1 l dark beer every evening, placebo mornings X+1 to X+7, 250 mg Unithiol mornings X+8 to X+14", "value": "0.7 nM/ml and 1.0 nM/ml and 0.90 nM/ml and 0.82 nM/ml"},
      {"measurement": "MDA (urine)", "setting": "[1]; day X+11, Experimental group 1: beer every evening, 250 mg Unithiol mornings X+8 to X+14", "value": "0.63 nM/ml and 0.80 nM/ml and 0.72 nM/ml and 0.54 nM/ml"},
      {"measurement": "ALT (blood)", "setting": "[1]; [6]", "value": "52 nmol (sec. 1) and 58 nmol (sec. 1) and 45 nmol (sec. 1) and 42 nmol (sec. 1)"},
      {"measurement": "AST (blood)", "setting": "[1]; [6]", "value": "41 nmol (sec. 1) and 50 nmol (sec. 1) and 40 nmol (sec. 1) and 35 nmol (sec. 1)"},
      {"measurement": "MDA (urine)", "setting": "[1]; [6]", "value": "0.69 nM/ml and 0.82 nM/ml and 0.64 nM/ml and 0.53 nM/ml"},
      {"measurement": "SH-gr. (blood)", "setting": "[1]; [6]", "value": "384 MKM and 375 MKM and 389 MKM and 392 MKM"},
      {"measurement": "Triglycerides (blood)", "setting": "[1]; [6]", "value": "0.65 mmoi/l and 0.59 mmoi/l and 0.71 mmoi/l and 0.64 mmoi/l"},
      {"measurement": "Urate (blood)", "setting": "[1]; [6]", "value": "265 MKM and 253 MKM and 285 MKM and 279 MKM"},
      {"measurement": "Vit. A (blood)", "setting": "[1]; [6]", "value": "1.4 mcg/ml (2×) and 1.2 mcg/ml and 2.1 mcg/ml"},
      {"measurement": "Vit. E (blood)", "setting": "[1]; [6]", "value": "2.8 µg/mL and 2.1 µg/mL and 2.2 µg/mL and 1.7 µg/mL"}
    ]}
  ]
}
